Assay results from PMC10215355, “Chemical Composition of the Cinnamomum malabatrum Leaf Essential Oil and Analysis of Its Antioxidant, Enzyme Inhibitory and Antibacterial Activities” (Antibiotics, 2023).
In brackets after ≈: the same amount, converted by molar mass.

Experiments:
Salmonella enterica [1] = experiment: Minimum inhibitory concentration (96-well, TTC); assay type: cell-based
Text: (§1) The bacteria were procured from Microbial Type Culture Collection and Gene Bank (MTCC), Chandigarh and maintained under standard conditions as prescribed by Bonnet, et al.. The bacterial strains used include Escherichia coli, Pseudomonas aeruginosa, Staphylococcus aureus, Bacillus cereus, Streptococcus pyogenes and Salmonella enterica.
The determination of the MIC value was made according to the methods described by Campana, et al.. Before beginning, the density of the inoculum was spectrophotometrically set to 5 × 10^5 CFU/mL. From this, about 50 µL was transferred to individual wells of a 96-well plate containing different concentrations of C. malabatrum essential oil. Later, 2,3,5-triphenyltetrazolium chloride (10 µL) was added to each well; the pink color of the 2,3,5-triphenyltetrazolium chloride was lost in the absence of bacterial growth. The MIC value was considered as the lowest concentration without a detectable pink color.

α-glucosidase = experiment: α-Glucosidase inhibition; conditions: 0–100 μg/mL
Description: The enzyme-inhibitory potential of the essential oil was evaluated by mixing different concentrations (0–100 μg/mL) against the respective enzymes and their substrates. The enzyme activities will be estimated in terms of the substrate utilized after incubation. The inhibition of α-amylase [75], α-glucosidase [76], aldose reductase [77] and sorbitol dehydrogenase [78] was carried out according to the methods previously described.

Escherichia coli [2] = experiment: Disc diffusion method; assay type: cell-based; conditions: 8 mm disc, 10 μL oil, 24 h
Staphylococcus aureus [3] = experiment: Disc diffusion method; assay type: cell-based; conditions: 8 mm disc, 10 μL oil, 24 h
Escherichia coli [4] = experiment: Minimum inhibitory concentration (96-well, TTC); assay type: cell-based
α-amylase = experiment: α-Amylase inhibition; assay type: biochemical; conditions: 0–100 μg/mL
ABTS radical scavenging = conditions: 0 to 100 µg/mL series
Description: (§2) The concentration of essential oil used was a different series from 0 to 100 μg/mL for each radical quenching assay. The quenching of DPPH radicals was analyzed using the methods of [70]. The ABTS radicals scavenging activity was analyzed according to the methods of Li et al.. The hydrogen peroxide quenching potential of the essential oil was following the methods of Munteanu and […] [72]. The ferric-reducing abilities of the essential oil were estimated according to the methods described by He et al.. The methods described by Okoh et al.

[5] = H2O2 radical scavenging (hydrogen peroxide quenching); conditions: 0 to 100 µg/mL series
Description: as §2

[6] = Ferric-reducing potential (FRAP); conditions: 0 to 100 µg/mL series
Description: as §2

Bacillus cereus [7] = experiment: Disc diffusion method; assay type: cell-based; conditions: 8 mm disc, 10 μL oil, 24 h
Streptococcus pyogenes [8] = experiment: Disc diffusion method; assay type: cell-based; conditions: 8 mm disc, 10 μL oil, 24 h
aldose reductase = aldose reductase (Homo sapiens, UniProt P15121); experiment: Aldose reductase inhibition; assay type: biochemical; conditions: 0–100 μg/mL
Pseudomonas aeruginosa [9] = experiment: Minimum inhibitory concentration (96-well, TTC); assay type: cell-based
sorbitol dehydrogenase = target: T1, sorbitol dehydrogenase (Homo sapiens, UniProt Q00796); experiment: Sorbitol dehydrogenase inhibition; assay type: biochemical; conditions: 0–100 μg/mL
T1 sequence (Q00796 1-357): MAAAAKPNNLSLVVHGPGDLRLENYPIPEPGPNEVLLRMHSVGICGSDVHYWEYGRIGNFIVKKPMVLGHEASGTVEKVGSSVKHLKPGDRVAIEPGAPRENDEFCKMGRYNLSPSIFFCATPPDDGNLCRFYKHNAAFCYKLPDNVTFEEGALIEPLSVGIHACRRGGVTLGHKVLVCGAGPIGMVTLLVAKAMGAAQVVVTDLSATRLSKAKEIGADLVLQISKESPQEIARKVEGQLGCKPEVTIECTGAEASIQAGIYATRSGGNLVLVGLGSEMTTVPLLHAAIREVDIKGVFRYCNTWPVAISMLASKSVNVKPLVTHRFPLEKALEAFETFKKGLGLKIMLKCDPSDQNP

Staphylococcus aureus [10] = experiment: Minimum inhibitory concentration (96-well, TTC); assay type: cell-based
Bacillus cereus [11] = experiment: Minimum inhibitory concentration (96-well, TTC); assay type: cell-based
[12] = Lipid peroxidation inhibition (ex vivo); conditions: 0 to 100 µg/mL series
Description: as §2

Streptococcus pyogenes [13] = experiment: Minimum inhibitory concentration (96-well, TTC); assay type: cell-based
DPPH radical scavenging = conditions: 0 to 100 µg/mL series
Description: as §2

Pseudomonas aeruginosa [14] = experiment: Disc diffusion method; assay type: cell-based; conditions: 8 mm disc, 10 μL oil, 24 h
Salmonella enterica [15] = experiment: Disc diffusion method; assay type: cell-based; conditions: 8 mm disc, 10 μL oil, 24 h
Text: as §1
Initially, the bacteria cultured were completed in Luria-Bertani broth; for the antibacterial study, the inoculum of the bacteria was made on a Mueller Hinton Agar (MHA) agar plate (Himedia, Mumbai, Maharashtra, India) at a thickness of 5 mm. Later, a filter paper disc (8 mm in diameter) containing the leaf essential oil of C. malabatrum (10 μL) was placed in the agar plate at a distance of 50 mm. At the end of 24 h, the formation of the growth inhibition zone was estimated.

C=CC(C)(O)CCC=C(C)C (stereo not shown) [Linalool]
MIC (Salmonella enterica [1]): 325 µg/mL (≈ 2110 µM)
α-Glucosidase inhibition IC50 (α-glucosidase): 30.93 ± 3.41 µg/mL
Zone of Inhibition (Escherichia coli [2]): 17.8 ± 0.1 mm
Zone of Inhibition (Staphylococcus aureus [3]): 18.1 ± 0.2 mm
MIC (Escherichia coli [4]): 625 ± 50 µg/mL (≈ 4050 µM)
α-Amylase inhibition IC50 (α-amylase): 62.34 ± 2.91 µg/mL
ABTS radical scavenging IC50 (ABTS radical scavenging): 40.01 ± 1.33 µg/mL
H2O2 radical scavenging IC50 [5]: 38.09 ± 2.45 µg/mL
Ferric-reducing potential IC50 [6]: 35.93 ± 0.24 µg/mL
Zone of Inhibition (Bacillus cereus [7]): 17.6 ± 0.3 mm
Zone of Inhibition (Streptococcus pyogenes [8]): 17.9 ± 0.1 mm
IC50 (aldose reductase): 383 µM
MIC (Pseudomonas aeruginosa [9]): 325 ± 100 µg/mL (≈ 2110 µM)
IC50 (sorbitol dehydrogenase): 573 µM
MIC (Staphylococcus aureus [10]): 325 µg/mL (≈ 2110 µM)
MIC (Bacillus cereus [11]): 625 ± 100 µg/mL (≈ 4050 µM)
Lipid peroxidation inhibition IC50 [12]: 78.49 ± 3.07 µg/mL
MIC (Streptococcus pyogenes [13]): 325 µg/mL (≈ 2110 µM)
DPPH radical scavenging IC50 (DPPH radical scavenging): 35.22 ± 0.11 µg/mL
Zone of Inhibition (Pseudomonas aeruginosa [14]): 19.3 ± 0.2 mm
Zone of Inhibition (Salmonella enterica [15]): 16.8 ± 0.3 mm

CNC(C)C1CCC(N)C(OC2C(N)CC(N)C(OC3OCC(C)(O)C(NC)C3O)C2O)O1 (stereo not shown) [GM, gentamicin]
MIC (Salmonella enterica [1]): 167 µg/mL (≈ 350 µM)
Zone of Inhibition (Escherichia coli [2]): 21.3 ± 0.3 mm
Zone of Inhibition (Staphylococcus aureus [3]): 18.5 ± 0.5 mm
MIC (Escherichia coli [4]): 325 µg/mL (≈ 680 µM)
Zone of Inhibition (Bacillus cereus [7]): 21.3 ± 0.5 mm
Zone of Inhibition (Streptococcus pyogenes [8]): 19.2 ± 0.7 mm
MIC (Pseudomonas aeruginosa [9]): 167 µg/mL (≈ 350 µM)
MIC (Staphylococcus aureus [10]): 325 µg/mL (≈ 680 µM)
MIC (Bacillus cereus [11]): 325 µg/mL (≈ 680 µM)
MIC (Streptococcus pyogenes [13]): 167 µg/mL (≈ 350 µM)
Zone of Inhibition (Salmonella enterica [15]): 19.9 ± 0.3 mm

O=C1O[C@H]([C@@H](O)CO)C(O)=C1O [Ascorbic Acid]
α-Glucosidase inhibition IC50 (α-glucosidase): 36.03 ± 1.98 µg/mL
α-Amylase inhibition IC50 (α-amylase): 45.17 ± 2.36 µg/mL
ABTS radical scavenging IC50 (ABTS radical scavenging): 12.82 ± 0.40 µg/mL
H2O2 radical scavenging IC50 [5]: 19.11 ± 0.26 µg/mL
IC50 (aldose reductase): 163 µM
IC50 (sorbitol dehydrogenase): 341 µM
Lipid peroxidation inhibition IC50 [12]: 63.02 ± 0.33 µg/mL
DPPH radical scavenging IC50 (DPPH radical scavenging): 8.13 ± 0.09 µg/mL
